Experimental data from patent US9931324B2, “Indolizine derivatives and their use in neurodegenerative diseases” (Merck Patent GmbH, priority 2014, dated 2018).

Tests used:
P2X7 [1] = target: T1, P2X7 (Homo sapiens, UniProt Q99572); assay: Pore permeation assay (YO PRO dye uptake, BzATP-induced); assay type: cell-based; set-up: expressed in transfected cells; host or cells: HEK293; conditions: HEK293 transfected with human P2X7 receptor, BzATP 10 uM, read-out: hP2X7 IC50
T1 sequence (Q99572 1-595): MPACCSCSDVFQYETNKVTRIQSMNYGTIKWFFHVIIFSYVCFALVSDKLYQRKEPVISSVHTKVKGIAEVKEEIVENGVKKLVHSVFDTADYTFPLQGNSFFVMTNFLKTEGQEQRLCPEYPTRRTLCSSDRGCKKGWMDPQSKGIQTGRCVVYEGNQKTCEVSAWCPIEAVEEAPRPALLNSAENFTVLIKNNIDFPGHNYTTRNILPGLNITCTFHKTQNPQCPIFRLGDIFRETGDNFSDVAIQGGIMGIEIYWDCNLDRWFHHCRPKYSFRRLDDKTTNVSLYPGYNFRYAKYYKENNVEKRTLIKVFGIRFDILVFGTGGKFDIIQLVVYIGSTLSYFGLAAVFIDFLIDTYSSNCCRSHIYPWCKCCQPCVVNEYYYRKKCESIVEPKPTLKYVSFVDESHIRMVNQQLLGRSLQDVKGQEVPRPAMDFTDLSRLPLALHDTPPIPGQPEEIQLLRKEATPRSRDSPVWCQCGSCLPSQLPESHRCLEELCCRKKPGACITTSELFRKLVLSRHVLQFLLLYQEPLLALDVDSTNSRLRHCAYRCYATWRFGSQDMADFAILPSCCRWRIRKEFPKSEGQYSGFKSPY
Description: Agonist-induced pore formation was determined by measuring cellular uptake of YO PRO fluorescence dye in HEK293 transfected with human P2X7 receptor. A HEK293 cell over expressing human P2X7 was harvested using HQTase reagent to detach the cells from T75 cm flask. The harvested cells are centrifuged @1200 rpm for 5 min at room temperature. The viability of cells was determined by Trypan blue dye and the cells are plated @10,000 cell/well in 50 ul volume in a 384W BD Poly lysine coated plate and incubated overnight at 37 C. After overnight incubation, the culture medium was replaced with 35 ul/well assay buffer (5 mM KCl, 0.1 mM CaCl2, 5 mM Glucose, 10 mM HEPES buffer pH7.4 containing 125 mM NaCl. The serial dilution of compounds was performed using Bravo liquid handling instrument and the compounds were added using Bravo to the cell assay plate starting at 2.5 uM with three dilutions for 10 points. The positive control inhibitor compound was added to column 23. The plate was shaken slowly on a plate shaker for 10 seconds. The cells were incubated with the compound for 20 minutes at room temperature. After the incubation period, YO PRO dye (1 uM) along with BzATP (10 uM) were added to cells at 10 ul/well. The plate was centrifuged at 1000 rpm for 5 seconds and incubated at room temperature for 30 minutes. The uptake of YO PRO dye into the cells was measured using Envision Fluorescence plate reader instrument (Perkin Elmer).

P2X7 [2] = target: T1, P2X7; assay: IL-1β release assay in THP-1 cells (sandwich ELISA, BzATP-stimulated); assay type: cell-based; set-up: endogenous in cells; host or cells: THP-1 cells (PMA-differentiated, LPS-primed); conditions: LPS primed, 0.8 mM BzATP, mature IL-1β release, read-out: hTHP-1/IL-ib IC50
Description: IL-1β release assay: The activation of P2X7 by ATP leads to a fast transient activation of cells resulting in influx of Ca^2+ followed by conversion of pro-IL-1β to active IL-1β. The functional activity of P2X7 compounds was measured by the release of mature IL-1β in the culture medium of THP-1 cells, detected by sandwich ELISA. Cells were maintained in complete growth medium (RPMI 1640+10% HI-FCS+2 mM L-glutamine+1× PS). […] THP-1 cells were harvested from the flask in 50 ml by centrifugation for 3 min at 100 g. The cells were resuspended to 2×10^5 cells/ml in medium supplemented with 0.5 μM PMA and incubated. The cells were washed and resuspended to 1.5×10^5 cells/ml in medium complemented with 10 ng/ml LPS, and the cells were primed for 4 h at 37° C., 5% CO2. After addition of 20 μL of prediluted test compounds, blank, standard and control reagents, cells were incubated for a further 20 min at 37° C. and stimulated with 0.8 mM BzATP for 30 minutes. The cells were centrifuged, supernatant was collected and the presence of mature IL-1β was detected using Dual human IL-1b kit following manufacturer's instruction. The tetrahydrobenzodiazepine analogs effectively modulated the activity of P2X7 in the cells as measured by the levels of pro-inflammatory cytokine IL-1β, which is released by the activation of P2X7 receptor.

IC50 (P2X7 [1]) | IC50 (P2X7 [2]) | Compound
10 to 100 nM | 101 to 500 nM | COCCc1cc(C(=O)NCC2(O)CCC(F)(F)C(C)C2)c2c(Cl)cccn12 (centres unmarked) [Compound 43, 8-chloro-N-((4,4-difluoro-1-hydroxy-3-methylcyclohexyl)methyl)-3-(2-methoxyethyl)indolizine-1-carboxamide]
10 to 100 nM | 101 to 500 nM | O=C(NCC1CCCC(F)(F)C1)c1cc(CCO)n2cccc(Cl)c12 (centres unmarked) [Compound 45, 8-chloro-N-((3,3-difluorocyclohexyl)methyl)-3-(2-hydroxyethyl)indolizine-1-carboxamide]
10 to 100 nM | 10 to 100 nM | O=C(NCC1(O)CCC(F)(F)CC1)c1cc(CC2CCOC2)n2cccc(Cl)c12 (centres unmarked) [Compound 47, 8-chloro-N-((4,4-difluoro-1-hydroxycyclohexyl)methyl)-3-((tetrahydrofuran-3-yl)methyl)indolizine-1-carboxamide]
10 to 100 nM | 10 to 100 nM | O=C(NCC1(O)CCC(F)(F)CC1)c1cc(C2CCCO2)n2cccc(Cl)c12 (centres unmarked) [Compound 48, 8-Chloro-3-(tetrahydro-furan-2-yl)-indolizine-1-carboxylic Acid (4,4-difluoro-1-hydroxycyclohexyl methyl)-amide]
10 to 100 nM | 101 to 500 nM | O=C(NCC1CCC(F)(F)CC1)c1cc(CCO)n2cccc(Cl)c12 [Compound 51, 8-chloro-N-((4,4-difluorocyclohexyl)methyl)-3-(2-hydroxyethyl)indolizine-1-carboxamide]
10 to 100 nM | 10 to 100 nM | COCCc1cc(C(=O)NCC2(O)CCC(F)(F)CC2)c2c(Cl)cccn12 [Compound 53, 8-chloro-N-((4,4-difluoro-1-hydroxycyclohexyl)methyl)-3-(2-methoxyethyl)indolizine-1-carboxamide]
< 10 nM | 10 to 100 nM | O=C(NCC1(O)CCCC(F)(F)C1)c1cc(C2CCCO2)n2cccc(Cl)c12 (centres unmarked) [Compound 54, 8-Chloro-3-(tetrahydro-furan-2-yl)-indolizine-1-carboxylic Acid (3,3-difluoro-1-hydroxycyclohexyl methyl)-amide]
101 to 500 nM | 101 to 500 nM | COCCc1cc(C(=O)NCC2(O)CCCC(F)(F)C2)c2c(C)cccn12 (centres unmarked) [Compound 57, 3-(2-Methoxy-ethyl)-8-methyl-indolizine-1-carboxylic Acid (3,3-difluoro-1-hydroxy-cyclohexylmethyl)-amide]
101 to 500 nM | 10 to 100 nM | COCCc1cc(C(=O)NCC2(O)CCCC(F)(F)C2)c2c(C(F)(F)F)cccn12 (centres unmarked) [Compound 60, 3-(2-Methoxy-ethyl)-8-trifluoro methylindolizine-1-carboxylic Acid (3,3-difluoro-1-hydroxy-cyclohexylmethyl)-amide]
10 to 100 nM | 10 to 100 nM | O=C(NCC1(O)CCC(F)(F)CC1)c1cc(C2CCOC2)n2cccc(Cl)c12 (centres unmarked) [Compound 61, 8-chloro-N-((4,4-difluoro-1-hydroxycyclohexyl)methyl)-3-(tetrahydrofuran-3-yl)indolizine-1-carboxamide]
< 10 nM | 10 to 100 nM | COCCc1cc(C(=O)NCC2(O)CCCC(F)(F)C2)c2c(Cl)cccn12 (centres unmarked) [Compound 62, 8-Chloro-3-(2-methoxy-ethyl)-indolizine-1-carboxylic Acid (3,3-difluoro-1-hydroxycyclohexylmethyl)-amide]
10 to 100 nM | 101 to 500 nM | COCCc1cc(C(=O)NC[C@]2(O)CCCC(F)(F)C2)c2c(Cl)cccn12 [Compound 64, 8-Chloro-3-(2-methoxy-ethyl)-indolizine-1-carboxylic Acid ((S)-3,3-difluoro-1-hydroxy-cyclohexylmethyl)-amide]
10 to 100 nM | 10 to 100 nM | O=C(NCC1(O)CCCC(F)(F)C1)c1cc(C2CCOC2)n2cccc(Cl)c12 (centres unmarked) [Compound 65, 8-Chloro-3-(tetrahydro-furan-3-yl)-indolizine-1-carboxylic Acid (3,3-difluoro-1-hydroxycyclohexyl methyl)-amide]
10 to 100 nM | 101 to 500 nM | O=C(NC[C@@]1(O)CCCC(F)(F)C1)c1cc(C2CCOC2)n2cccc(Cl)c12 (stereo partly drawn) [Compound 66, 8-chloro-N—(((R)-3,3-difluoro-1-hydroxycyclohexyl)methyl)-3-(tetrahydrofuran-3-yl)indolizine-1-carboxamide]
10 to 100 nM | 10 to 100 nM | O=C(NC[C@]1(O)CCCC(F)(F)C1)c1cc(C2CCOC2)n2cccc(Cl)c12 (stereo partly drawn) [Compound 67, 8-chloro-N—(((S)-3,3-difluoro-1-hydroxycyclohexyl)methyl)-3-(tetrahydrofuran-3-yl)indolizine-1-carboxamide]
101 to 500 nM | 101 to 500 nM | CCOCCc1cc(C(=O)NCC2(O)CCC(F)(F)CC2)c2c(Cl)cccn12 [Compound 69, 8-Chloro-3-(2-ethoxy-ethyl)-indolizine-1-carboxylic Acid (4,4-difluoro-1-hydroxy-cyclohexylmethyl)-amide]
10 to 100 nM | 10 to 100 nM | CCOCCc1cc(C(=O)NCC2(O)CCCC(F)(F)C2)c2c(Cl)cccn12 (centres unmarked) [Compound 70, 8-Chloro-3-(2-ethoxy-ethyl)-indolizine-1-carboxylic Acid (3,3-difluoro-1-hydroxy-cyclohexylmethyl)-amide]
10 to 100 nM | 10 to 100 nM | C[C@@H]1CCC[C@](O)(CNC(=O)c2cc(C3CCC3)n3cccc(Cl)c23)C1 [Compound 71, 8-chloro-3-cyclobutyl-N-(((1R,3R)-1-hydroxy-3-methylcyclohexyl)methyl) indolizine-1-carboxamide]
10 to 100 nM | 10 to 100 nM | [2H]C([2H])([2H])OCCc1cc(C(=O)NCC2CCC(F)(F)CC2)c2c(Cl)cccn12 [Compound 72]
10 to 100 nM | 10 to 100 nM | CCOCCc1cc(C(=O)NC[C@@]2(O)CCC[C@@H](C)C2)c2c(Cl)cccn12 [Compound 73]

Compound | IC50 (P2X7 [1]) | IC50 (P2X7 [2])
(R)-8-chloro-N-((4,4-difluoro-1-hydroxycyclohexyl)methyl)-3-((tetrahydrofuran-3-yl)methyl)indolizine-1-carboxamide [Compound 50] | 10 to 100 nM | 101 to 500 nM
(S)-8-chloro-N-((4,4-difluoro-1-hydroxycyclohexyl)methyl)-3-((tetrahydrofuran-3-yl)methyl)indolizine-1-carboxamide [Compound 52] | 10 to 100 nM | 10 to 100 nM
